Data on four compounds can be found in patent US20210261690A9, “Method of Generating Anti-Linaclotide Antibodies and Uses Thereof” (Ironwood Pharmaceuticals, Inc., priority 2018, published 2021).

Values joined by “and” are separate entries in the source; they are usually repeats but may differ in a detail not shown here. Equal entries are not always repeated. Bridge positions count the residues as written; N and C are the ends. Ends that are not written are not given here. Peptide text beside a SMILES is read from it.

For series [1], the system named is antibody obtained from protocol 2. Kind of series: Confirmatory assay (ELISA bridging assay with linaclotide competition). The format is binding, rabbit. The conditions noted are these: 500 ng/mL antibody from protocol 2, 300 ng/mL SEQ ID NO: 8, 312 ng/mL SEQ ID NO: 9. The text has this:
The initial bridging assay was developed using a biotinylated form of linaclotide, SEQ ID NO: 8, for antibody capture, and the linaclotide-tracer peptide, SEQ ID NO: 9, for detection on a streptavidin plate. […] A sheep anti-fluorescein antibody conjugated to HRP was used for detection of SEQ ID NO: 9 to enhance the signal over direct detection of the fluorescein moiety by ultraviolet-visible spectroscopy (UV/Vis). In this initial assay, the capture peptide (biotin-linaclotide), detection peptide (fluorescein-linaclotide), and anti-linaclotide antibodies were first incubated overnight in solution to allow complexes to form. These complexes were captured on a streptavidin plate, which was then washed. Bound complexes were detected with an HRP-conjugated anti-fluorescein antibody followed by addition of the HRP substrate and colorimetric detection.
The confirmatory assay was developed as a variation of the ELISA-based bridging assay (Example 6) with competition using fluorescein for detection. The peptide antibody incubation mixture was spiked with native linaclotide, and the concentrations of positive control antibody, capture peptide, and detection peptide were kept constant.
A binding curve was generated using Prism® v.
(In general: An ELISA detects its analyte on a solid surface through an enzyme-linked reagent.)

Series [2] concerns anti-linaclotide antibodies obtained using protocol 2. Nature of the series: Cross-reactivity competition assay. The format is binding, rabbit. The conditions noted are these: 6.3 μg/mL peptide, 500 ng/mL antibody from protocol 2. The text has this: The cross-reactivity assay to test for cross-reactivity to the endogenous hormones, uroguanylin and guanylin, is a competition assay similar to the confirmatory assay (Example 7).
To determine if the positive control antibody produced by protocol 2 could bind either of the endogenous hormones, uroguanylin or guanylin peptides were used in place of linaclotide in a competition assay similar to the confirmatory assay described in Example 7. During development, the IC80 concentration for linaclotide, 6.3 μg/mL, was chosen as a relevant test concentration for cross-reactivity because it is on the higher end of the linear range of the inhibition curve (FIG. 18). This concentration (6.3 μg/mL) is approximately 10,000 times the systemic circulating levels of uroguanylin and guanylin. A non-related peptide, C-type natriuretic peptide (CNP), was added as a negative control in this assay.

Series [3] deals with positive control antibody produced by protocol 1. Nature of the series: Bridging cross-reactivity assay with fluorescein-modified detection peptides. The format is binding, rabbit. Conditions: 500 ng/mL antibody, 312 ng/mL SEQ ID NO: 8, 312 and 625 ng/mL fluorescein-modified peptides. The text has this: A bridging cross-reactivity assay similar to the screening assay (Example 6) was set up to detect direct binding of the positive control antibody to both linaclotide and uroguanylin or guanylin. For use as detection peptides, uroguanylin and guanylin were synthesized with fluorescein coupled to their N terminus (SEQ ID NO: 10 and SEQ ID NO: 12, respectively; Table 4). This cross-reactivity assay used SEQ ID NO: 8 (Table 4) as the capture peptide, just as in the screening assay, and either SEQ ID NO: 10 (for uroguanylin) or SEQ ID NO: 12 (for guanylin) as the detection peptide. Sheep anti-fluorescein HRP-conjugated antibody was used for detection of positive control antibodies. The antibody must directly bind both the linaclotide-capture peptide and uroguanylin or guanylin to generate a signal in the assay (FIG. 21). A fluorescein-modified PGC1a peptide was purchased for use as a negative control for cross-reactivity.
This cross-reactivity assay was performed using 500 ng/mL of positive control antibody produced by protocol 1, 312 ng/mL of SEQ ID NO: 8, and 2 concentrations (312 and 625 ng/mL) of fluorescein-modified peptides for each set of reactions. […] Positive control antibody is excluded from blank incubations.

For series [4] the following is noted: Phase 2b studies for CC, four-week treatment period; cited from earlier work.
The conditions of series [5]: after oral administration at therapeutic dose levels; cited from earlier work.
Series [6] relates to antibody produced by protocol 1. Nature of the series: Direct-binding ELISA for cross-reactivity with immobilized biotinylated peptides. Also on record: species or system rabbit. As to the method:
To further characterize the interactions between the positive control antibody and the cross-reacting peptides, a direct-binding ELISA experiment was conducted in which varying concentrations of biotinylated peptides (linaclotide, uroguanylin, and negative control parathyroid hormone [PTH]) were immobilized on the plate for antibody capture. The assay was performed using either sera from protocol 1 or anti-uroguanylin serum (Abcam ab52806) in ELISA buffer; no adequate control antibody to guanylin is available. HRP-anti-rabbit secondary antibody was used for the detection of anti-linaclotide antibodies, and HRP-anti-mouse secondary antibody was used for the detection of anti-uroguanylin antibodies from the antiserum. […] The signal for uroguanylin binding was approximately 15% of the signal obtained for linaclotide under the same conditions.

The subject of series [7] is rabbit anti-linaclotide antibody. Nature of the series: Electrochemiluminescence bridging assay, specificity (cross-reactivity). The format is binding. Conditions: individual human serum. As to the method:
The electrochemiluminescence assay was used as a validation of a method to detect anti-linaclotide antibodies in human serum using a MSD electrochemiluminescence protocol. Low positive control (LPC), high positive control (HPC), relative light units (RLU), coefficient of variation (CV) and confirmation cut points were determined using MSD procedures. The positive control antibodies used were the antibodies harvested from protocol 2.
The assay is an immunogenicity bridging-based assay developed on MesoScale Discovery Electrochemiluminescence (ECL) technology. It is performed by first mixing a biotinylated-linaclotide analog, a sulfotag-labeled linaclotide analog, and the clinical sample together in a multi-well plate. The presence of anti-linaclotide antibodies in the clinical sample forms an immune complex with a biotin-labeled linaclotide analog and a sulfotag-labeled linaclotide analog. The immune complex is subsequently captured on a streptavidin coated MesoScale Discovery multi-well plate followed by a wash step. The captured immune complex is then detected by electrochemiluminescence generated by the sulfotag-labeled linaclotide portion of the immune complex. The signal generated by the sample is then compared to a pre-determined screening cut point to determine if the sample is positive for the presence of anti-linaclotide antibodies. Samples that are determined to be positive are subjected to a second immunogenicity confirmation assay which is performed by mixing a biotinylated-linaclotide analog, a sulfotag-labeled linaclotide analog, the clinical sample, and unlabeled linaclotide together in a multi-well plate. The immune complex is subsequently captured on a streptavidin-coated MesoScale Discovery multi-well plate followed by a wash step. The captured immune complex is then detected by electrochemiluminescence generated by the sulfotag-labeled linaclotide portion of the immune complex. The signal generated by the sample is then compared to a pre-determined confirmation assay cut point to determine if the sample is positive for the presence of anti-linaclotide antibodies. Samples that are confirmed positive by this assay are subsequently tested at different dilutions to determine the titer of the anti-linaclotide antibody.
Specificity (cross-reactivity) of the assay was assessed by spiking ten drug-naive individual human serum samples containing rabbit anti-linaclotide antibody at the HPC (500 ng/mL) and the screening LPC (44 ng/mL) levels with 10 μg/mL Uroguanylin or Guanylin. At the same time, ten replicates of the antibody-spiked samples (without Uroguanylin or Guanylin) at each level were included to establish the % Inhibition. The following formula was used to calculate the % Inhibition for each individual:
% Inhibition=[(1−(Drug with Antibody/Antibody alone)]*100

Series [8] relates to positive control antibody. Nature of the series: Direct-binding ELISA of linaclotide-tracer peptide. Conditions: anti-fluorescein antibody conjugated to HRP for detection. Also on record: species or system rabbit. From the text: Anti-fluorescein antibody conjugated to HRP was used to detect the linaclotide-tracer peptide, SEQ ID NO: 9. The signal increased with increasing antibody concentration.

For the compound `C[C@@H]1NC(=O)[C@@H]2CCCN2C(=O)[C@H](CC(N)=O)NC(=O)[C@@H]2CSSC[C@H](N)C(=O)N[C@H]3CSSC[C@H](NC1=O)C(=O)N[C@@H]([C@@H](C)O)C(=O)NCC(=O)N[C@H](C(=O)N[C@@H](Cc1ccc(O)cc1)C(=O)O)CSSC[C@H](NC(=O)[C@H](Cc1ccc(O)cc1)NC(=O)[C@H](CCC(=O)O)NC3=O)C(=O)N2` [Linaclotide, C1C2EYC3C1NPAC2TGC3Y] (H-CCEYCCNPACTGCY-OH; disulfide 1-6, 2-10, 5-13), in series [1], the “50% inhibitory concentration (IC50)” value was 1.4 µg/mL and the “80% inhibitory concentration (IC80)” value amounted to 6.3 µg/mL. For the same compound, the inhibition of binding result in series [2] was “approximately 60%”. Besides, the “signal in the direct-binding assay for cross-reactivity” value in series [3] was “Only linaclotide was able to generate a positive signal”. The “effect on constipation, abdominal discomfort and bloating” value in series [4] is “reduced constipation, abdominal discomfort, and bloating”. Further, in series [5], the levels seen systemically is recorded as “no detectable levels”.
Take “NNDC1 ELC2 VAVAC1 TGC2 L (NNDCELCVAVACTGCL; disulfide 4-12, 7-15; not fully specified (N-terminus); printed as NNDC1 ELC2 VAVAC1 TGC2 L) [Uroguanylin, endogenous hormone]”: in series [2], the “recognition by antibodies produced by protocol 2 (inhibition versus negative control CNP)” value is listed as “not recognized by antibodies produced by protocol 2”. Moreover, the “signal for binding relative to the signal obtained for linaclotide” value in series [6] (60 ng/mL antibody of protocol 1) is reported as “approximately 15%”. In addition, the “binding of antibody produced by protocol 1” value in series [6] (60 ng/mL antibody of protocol 1, varying concentrations of biotinylated peptide, FIG. 20) is “binds to uroguanylin in a concentration-dependent manner”. In addition, the “Percent Inhibition” value in series [7] (10 μg/mL Uroguanylin, antibody at the HPC (500 ng/mL)) was 10.7% and 18.6% and 9.5% and −11.3% and 10.1% and −11.7% and −1.3% and −0.5% and 0.6% and 1.9%; in series [7] (10 μg/mL Uroguanylin, antibody at the Screening LPC (44.0 ng/mL)) it was −6.6% and 18.4% and 15.7% and 4.8% and −3.8% and −1.5% and 3.2% and 5.1% and −0.5% and −4.1%. In addition, the “Antibody and 10 μg/mL Uroguanylin (signal)” value in series [7] (antibody at the HPC (500 ng/mL)) was 147 and 151 and 145 and 164 and 162 and 185 and 180 (2×) and 169 and 157; in series [7] (antibody at the Screening LPC (44.0 ng/mL)), 59 (2×) and 39 and 44 and 52 (4×) and 51 and 53.
Consider “Fluorescein-C1 C2 EYC3 C1 NPAC2 TGC3 Y [SEQ ID NO: 9]”, for which, in series [8], the “binding to the positive control antibody” value was “confirmed”.
For the compound “PGTC1 EIC2 AYAAC1 TGC2 (PGTCEICAYAACTGC; disulfide 4-12, 7-15; not fully specified (N-terminus); printed as PGTC1 EIC2 AYAAC1 TGC2) [Guanylin, endogenous hormone]”, in series [2], the “recognition by antibodies produced by protocol 2 (inhibition versus negative control CNP)” value is reported as “not recognized by antibodies produced by protocol 2”. In addition, the “Antibody and 10 μg/mL Uroguanylin (signal)” value in series [7] (Table 7 (Guanylin), antibody at the HPC (500 ng/mL)) is 225 and 199 and 179 and 177 and 174 and 181 and 155 and 135 and 130 and 239; in series [7] (Table 7 (Guanylin), antibody at the Screening LPC (44.0 ng/mL)) it was 71 and 57 (2×) and 55 (2×) and 54 and 53 (2×) and 63 and 51. The “Percent Inhibition” value in series [7] (Table 7 (Guanylin, 10 μg/mL), antibody at the HPC (500 ng/mL)) was 0.0% and 3.2% and 7.6% and −3.4% and 2.2% and −7.8% and −3.9% and −1.9% and −7.1% and −4.5%; in series [7] (Table 7 (Guanylin, 10 μg/mL), antibody at the Screening LPC (44.0 ng/mL)) it was −7.1% and 8.2% and 3.4% and 12.5% and 11.0% and 7.4% and 6.4% and 3.6% and 0.1% and 7.0%.
